According to publication PMC7894522, “Structure Based Design of Bicyclic Peptide Inhibitors of RbAp48” (Angewandte Chemie (International Ed. in English), 2020):
Starred links: 1 amine or outer side, 2 acyl side, 3 side chain; linkers in the order of their positions; H or OH if unused. Positions of bridges follow the written chain, without caps; N, C: chain ends. Residues, ends and D or L forms follow the SMILES beside them. TBMB = c1c(C[*:1])cc(C[*:3])cc1C[*:2]; mXylylene = c1cc(C[*:1])cc(C[*:2])c1; oXylylene = c1ccc(C[*:2])c(C[*:1])c1; X2 = c1ccc2c(C[*:2])ccc(C[*:1])c2c1; pXylylene = c1cc(C[*:2])ccc1C[*:1]; X4 = N#Cc1cc(C[*:1])cc(C[*:2])c1; X3 = COc1cc(C[*:1])cc(C[*:2])c1

target: RbAp48 (Homo sapiens, UniProt Q09028); assay: Competitive fluorescence polarization (FP) assay using complex of peptide 1 and RbAp48; assay type: binding; parameters: Full length RbAp48 was cloned; His tag followed by 3C cleavage site (N, cleaved yes); made in house; host or cells: Sf9 insect cells; conditions: Supplemental Table 2; competitive FP, tracer 1 nM, RbAp48 15 nM, pH 7.5, 30 min room temperature; read-out: IC50
Experimental: The binding affinity of our library of synthetic cyclic peptides was evaluated by a competitive fluorescence polarization (FP) assay using a complex formed by peptide 1 and RbAp48. To reduce the length of the peptide it was truncated to the amino acids which seemed most critical according to the crystal structure (residues 676–689, pdb:4pbz). […] We chose to use a cyclization approach to regain affinity, that is, not to induce more interactions but through minimizing the entropic penalty upon binding by reducing the flexibility of the peptide. To this end two amino acids were chosen which are facing one another in the structure (see Figure 1 B/D/E). Two peptides were designed where glutamic acid was used in position 676 (4) or position 680 (5) and lysine in position 688 for both peptides (see Table 1). The macrocycles were formed by connecting the side chains via an amide bond (see Figure 1 D/E). Peptide synthesis was performed on Rink‐amide resin using the Fmoc‐strategy incorporating Fmoc‐L‐Glu(All)‐OH and Fmoc‐L‐Lys(Alloc)‐OH at the sites for cyclization. After completion of the linear synthesis the allyl protecting groups were removed using Pd^0 catalysis and the amide link was formed by using PyBOP. […] Therefore, a range of peptides was synthesized which were cyclized using the same amino acid positions but via a cysteine alkylation strategy (see Figure 1 D/E and Table 1). In this method the residues used for cyclization are replaced with cysteine and benzylic dibromides act as crosslinkers on the unprotected peptides. ^[11] Previous research has shown that such linkers can effectively stabilize cyclic peptides and yield high affinity ligands for protein–protein interaction inhibition. ^[12] Such a linker introduces a xylene group in close vicinity of the hydrophobic patch potentially reconstituting the lost key hydrophobic interactions. To explore a variety of macrocycle conformations we used either ortho‐, meta‐ or para‐substituted dibromides to exchange the linker in both 4 and 5 (see Figure 1 D/E and Table 1). ^[13]
Protein expression and purification
RbAp48 was expressed and purified by the Dortmund Protein Facility. Full length RbAp48 was cloned into a pOPIN vector ligating it to an N-terminal His tag followed by a 3C cleavage site. The protein was expressed from Sf9 cells for 48 h. Cells were harvested and lysed and the protein was purified by loading onto a HisTrap FF crude 5 ml column followed by on-column cleavage using Precission protease. The cleaved protein was then further purified using a HiLoad 26/60 Superdex 200 column.
Fluorescence polarization assay
Fluorescence polarization assays were performed in 384 wells plates in 80 µl volumes. The assay buffer contains 20 mM Tris-HCl, 150 mM NaCl, 0.01% Tween-20 at pH 7.5. The concentration of the fluorescently labelled peptides was 1 nM plates were incubated at room temperature for 30 min before they were read on a Tecan Spark plate reader (λex = 485 nm, λem = 535 nm).
For competitive assays the same conditions were used with a tracer concentration of 1 nM was used and a protein concentration of 15 nM .

RbAp48, sequence (Q09028 whole entry, the tested form may be a part): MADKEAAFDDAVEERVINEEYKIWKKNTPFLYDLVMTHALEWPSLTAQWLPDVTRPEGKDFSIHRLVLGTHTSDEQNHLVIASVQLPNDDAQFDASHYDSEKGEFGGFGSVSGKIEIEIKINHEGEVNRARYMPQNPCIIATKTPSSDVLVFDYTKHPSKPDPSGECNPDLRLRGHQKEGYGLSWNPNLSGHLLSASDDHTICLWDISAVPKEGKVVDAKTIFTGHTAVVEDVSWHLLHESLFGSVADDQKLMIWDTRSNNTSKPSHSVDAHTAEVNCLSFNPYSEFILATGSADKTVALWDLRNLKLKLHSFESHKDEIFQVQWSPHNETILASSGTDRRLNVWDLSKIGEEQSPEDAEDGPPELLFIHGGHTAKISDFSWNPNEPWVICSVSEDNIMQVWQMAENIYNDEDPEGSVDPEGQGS

| Compound | IC50 |
| --- | --- |
| CC(=O)N[C@H]1CSCc2cc3cc(c2)CSC[C@@H](C(=O)N[C@@H](CC(N)=O)C(N)=O)NC(=O)[C@@H]2CCCN2C(=O)[C@H](CC(C)C)NC(=O)[C@H](Cc2ccc(O)cc2)NC(=O)[C@@H]2CCCN2C(=O)[C@H](Cc2c[nH]cn2)NC(=O)[C@H](CCCNC(=N)N)NC(=O)[C@H](C)NC(=O)[C@H](CSC3)NC(=O)[C@H](Cc2c[nH]cn2)NC(=O)[C@H](Cc2c[nH]c3ccccc23)NC(=O)[C@@H]2CCCN2C(=O)[C@H](CCCNC(=N)N)NC1=O [Peptide 34] (Ac-CRPWHCARHPYLPCN-NH2; linker 1-6-14 via TBMB) | 153 ± 2.4 nM |
| CC(=O)N[C@H]1CSCc2ccc(cc2)CSC[C@@H](C(=O)N[C@@H](CC(N)=O)C(N)=O)NC(=O)[C@@H]2CCCN2C(=O)[C@H](CC(C)C)NC(=O)[C@H](Cc2ccc(O)cc2)NC(=O)[C@@H]2CCCN2C(=O)[C@H](Cc2c[nH]cn2)NC(=O)[C@H](CCCNC(=N)N)NC(=O)[C@H](C)NC(=O)[C@H](C)NC(=O)[C@H](Cc2c[nH]cn2)NC(=O)[C@H](Cc2c[nH]c3ccccc23)NC(=O)[C@@H]2CCCN2C1=O [Peptide 19] (Ac-CPWHAARHPYLPCN-NH2; linker 1-13 via pXylylene) | > 10000 nM |
| CC(=O)N[C@H]1CSCc2ccc(c3ccccc23)CSC[C@@H](C(=O)N[C@@H](C)C(N)=O)NC(=O)[C@@H]2CCCN2C(=O)[C@H](CCCCN)NC(=O)[C@H](Cc2ccc(O)cc2)NC(=O)[C@@H]2CCCN2C(=O)[C@H](CCCNC(=N)N)NC(=O)[C@H](CCCNC(=N)N)NC(=O)[C@H](C)NC(=O)[C@H](C)NC(=O)[C@H](CCCNC(=N)N)NC(=O)[C@H](CCCCN)NC(=O)[C@H]([C@@H](C)O)NC1=O [Peptide 32] (Ac-CTKRAARRPYKPCA-NH2; linker 1-13 via X2 (inferred)) | 43.7 ± 6.4 nM |
| CC(=O)N[C@H]1CSCc2cccc(c2)CSC[C@@H](C(=O)N[C@@H](CC(N)=O)C(N)=O)NC(=O)[C@@H]2CCCN2C(=O)[C@H](CC(C)C)NC(=O)[C@H](Cc2ccc(O)cc2)NC(=O)[C@@H]2CCCN2C(=O)[C@H](Cc2c[nH]cn2)NC(=O)[C@H](CCCNC(=N)N)NC(=O)[C@H](C)NC(=O)[C@H](C)NC(=O)[C@H](Cc2c[nH]cn2)NC(=O)[C@H](Cc2c[nH]c3ccccc23)NC(=O)[C@@H]2CCCN2C1=O [Peptide 18] (Ac-CPWHAARHPYLPCN-NH2; linker 1-13 via mXylylene) | > 10000 nM |

The remaining lines, values ahead:

| IC50 | Compound |
| --- | --- |
| 43.8 ± 4.7 nM | CC(=O)N[C@H]1CSCc2cc(C#N)cc(c2)CSC[C@@H](C(=O)N[C@@H](C)C(N)=O)NC(=O)[C@@H]2CCCN2C(=O)[C@H](CCCCN)NC(=O)[C@H](Cc2ccc(O)cc2)NC(=O)[C@@H]2CCCN2C(=O)[C@H](CCCNC(=N)N)NC(=O)[C@H](CCCNC(=N)N)NC(=O)[C@H](C)NC(=O)[C@H](C)NC(=O)[C@H](CCCNC(=N)N)NC(=O)[C@H](CCCCN)NC(=O)[C@H]([C@@H](C)O)NC1=O [Peptide 29] (Ac-CTKRAARRPYKPCA-NH2; linker 1-13 via X4 (inferred)) |
| 315 ± 57.8 nM | CC(=O)N[C@H]1CSCc2cccc(c2)CSC[C@@H](C(=O)N[C@@H](C)C(N)=O)NC(=O)[C@@H]2CCCN2C(=O)[C@H](CCCCN)NC(=O)[C@H](Cc2ccc(O)cc2)NC(=O)[C@@H]2CCCN2C(=O)[C@H](CCCNC(=N)N)NC(=O)[C@H](CCCNC(=N)N)NC(=O)[C@H](C)NC(=O)[C@H](C)NC(=O)[C@H](CCCNC(=N)N)NC(=O)[C@H](Cc2c[nH]c3ccccc23)NC(=O)[C@H]([C@@H](C)O)NC1=O [Peptide 22] (Ac-CTWRAARRPYKPCA-NH2; linker 1-13 via mXylylene) |
| 38.4 ± 3.8 nM | COc1cc2cc(c1)CSC[C@@H](C(=O)N[C@@H](C)C(N)=O)NC(=O)[C@@H]1CCCN1C(=O)[C@H](CCCCN)NC(=O)[C@H](Cc1ccc(O)cc1)NC(=O)[C@@H]1CCCN1C(=O)[C@H](CCCNC(=N)N)NC(=O)[C@H](CCCNC(=N)N)NC(=O)[C@H](C)NC(=O)[C@H](C)NC(=O)[C@H](CCCNC(=N)N)NC(=O)[C@H](CCCCN)NC(=O)[C@H]([C@@H](C)O)NC(=O)[C@@H](NC(C)=O)CSC2 [Peptide 28] (Ac-CTKRAARRPYKPCA-NH2; linker 1-13 via X3 (inferred)) |

same assay, conditions: Table 1; competitive FP, tracer peptide 1 1 nM, RbAp48 15 nM, 20 mM Tris-HCl, 150 mM NaCl, 0.01% Tween-20, pH 7.5, 30 min room temperature; lower limit set by 15 nM protein; read-out: IC50

| IC50 | Compound |
| --- | --- |
| 126 ± 32.3 nM | CC(=O)N[C@@H](CCC(=O)O)C(=O)N[C@H](C(=O)N[C@@H](CCCCN)C(=O)N[C@@H](CCCNC(=N)N)C(=O)N[C@H]1CCC(=O)NCCCC[C@@H](C(=O)N[C@@H](C)C(N)=O)NC(=O)[C@@H]2CCCN2C(=O)[C@H](CCCCN)NC(=O)[C@H](Cc2ccc(O)cc2)NC(=O)[C@@H]2CCCN2C(=O)[C@H](CCCNC(=N)N)NC(=O)[C@H](CCCNC(=N)N)NC(=O)[C@H](C)NC1=O)[C@@H](C)O [Peptide 5] (Ac-ETKREARRPYKPKA-NH2; lactam 5-13) |
| 388 ± 69.8 nM | CC(=O)N[C@@H](CCC(=O)O)C(=O)N[C@H](C(=O)N[C@@H](CCCCN)C(=O)N[C@@H](CCCNC(=N)N)C(=O)N[C@H]1CSCc2cccc(c2)CSC[C@@H](C(=O)N[C@@H](C)C(N)=O)NC(=O)[C@@H]2CCCN2C(=O)[C@H](CCCCN)NC(=O)[C@H](Cc2ccc(O)cc2)NC(=O)[C@@H]2CCCN2C(=O)[C@H](CCCNC(=N)N)NC(=O)[C@H](CCCNC(=N)N)NC(=O)[C@H](C)NC1=O)[C@@H](C)O [Peptide 11] (Ac-ETKRCARRPYKPCA-NH2; linker 5-13 via mXylylene) |
| 77.4 ± 6.5 nM | CC(=O)N[C@H]1CSCc2ccccc2CSC[C@@H](C(=O)N[C@@H](C)C(N)=O)NC(=O)[C@@H]2CCCN2C(=O)[C@H](CCCCN)NC(=O)[C@H](Cc2ccc(O)cc2)NC(=O)[C@@H]2CCCN2C(=O)[C@H](CCCNC(=N)N)NC(=O)[C@H](CCCNC(=N)N)NC(=O)[C@H](C)NC(=O)[C@H](C)NC(=O)[C@H](CCCNC(=N)N)NC(=O)[C@H](CCCCN)NC(=O)[C@H]([C@@H](C)O)NC1=O [Peptide 6] (Ac-CTKRAARRPYKPCA-NH2; linker 1-13 via oXylylene) |
| 19.8 ± 3.6 nM | CC(=O)N[C@H]1CSCc2cc3cc(c2)CSC[C@@H](C(=O)N[C@@H](C)C(N)=O)NC(=O)[C@@H]2CCCN2C(=O)[C@H](C)NC(=O)[C@H](Cc2ccc(O)cc2)NC(=O)[C@@H]2CCCN2C(=O)[C@H](CCCNC(=N)N)NC(=O)[C@H](CCCNC(=N)N)NC(=O)[C@H](C)NC(=O)[C@H](CSC3)NC(=O)[C@H](CCCNC(=N)N)NC(=O)[C@H](CCCCN)NC(=O)[C@H]([C@@H](C)O)NC1=O [Peptide 44] (Ac-CTKRCARRPYAPCA-NH2; linker 1-5-13 via TBMB) |
| 263 ± 42.7 nM | CC(=O)N[C@H]1CSCc2cc3cc(c2)CSC[C@@H](C(=O)N[C@@H](C)C(N)=O)NC(=O)[C@@H]2CCCN2C(=O)[C@H](CCCCN)NC(=O)[C@H](Cc2ccc(O)cc2)NC(=O)[C@@H]2CCCN2C(=O)[C@H](CCCNC(=N)N)NC(=O)[C@H](CCCNC(=N)N)NC(=O)[C@H](C)NC(=O)[C@H](CSC3)NC(=O)[C@H](CCCNC(=N)N)NC(=O)[C@H](C)NC(=O)[C@H]([C@@H](C)O)NC1=O [Peptide 38] (Ac-CTARCARRPYKPCA-NH2; linker 1-5-13 via TBMB) |
| 12.4 ± 3.2 nM | CC(=O)N[C@H]1CSCc2cc3cc(c2)CSC[C@@H](C(=O)N[C@@H](C)C(N)=O)NC(=O)[C@@H]2CCCN2C(=O)[C@H](CCCCN)NC(=O)[C@H](Cc2ccc(O)cc2)NC(=O)[C@@H]2CCCN2C(=O)[C@H](CCCNC(=N)N)NC(=O)[C@H](CCCNC(=N)N)NC(=O)[C@H](C)NC(=O)[C@H](CSC3)NC(=O)[C@H](CCCNC(=N)N)NC(=O)[C@H](CCCCN)NC(=O)[C@H](C)NC1=O [Peptide 37] (Ac-CAKRCARRPYKPCA-NH2; linker 1-5-13 via TBMB) |
